Assay results: US9255248B2, “Method of producing erythrocytes without feeder cells” (Anthrogenesis Corporation, priority 2009, dated 2016)

Legend:
[1] = system: human UCB derived CD34+ cells; test: Short-term serum-free, cytokine supplemented expansion of UCB derived CD34+ cells with pomalidomide; format: cell-based; conditions: for CD34+ phenotype in the expanded population / CD133 level of expanded CD34+ cells / expanded CD34+ cells that are CD38 negative / total nucleated cell expansion: pomalidomide 2.7 μg/mL, 12 days
Description: The ability of pomalidomide to enhance the expansion of human UCB derived CD34^+ cells in a short-term serum-free, cytokine supplemented culture system was evaluated. CD34^+ progenitor cells were enriched from cryopreserved UCB units to >90% purity and seeded (104 CD34^+ cells) in 1 mL of growth medium, which consists of IMDM plus serum substitute BIT (BSA, recombinant human insulin and transferrin, 20%), in the presence of SCF (50 ng/mL), Flt-3 ligand (50 ng/mL), and IL-3 (10 ng/mL). Pomalidomide, dissolved in DMSO, was supplemented at 2.7 μg/mL. The culture was incubated at 37° C., 5% CO2 for 12 days, with fresh medium added at day 7. Pomalidomide-free cultures with or without DMSO (0.05% v/v) were used as controls.

[2] = system: CD34+ cells; test: Scaled-up pomalidomide-based CD34+ expansion in gas-permeable culture bag; format: cell-based, human
Description: CD34^+ cells were seeded in 10^4/mL pomalidomide-supplemented medium in a flexible, gas-permeable fluorocarbon culture bag (American Fluoroseal). After 7 days of incubation, the culture was centrifuged and exchanged with fresh pomalidomide-supplemented medium at three times the initial volume. By day 12, TNC and CD34^+ expansion were 350 (range: 250-700) and 200 (range: 100-450) fold, respectively (FIG. 4). Viability was 86% (range: 80-90%) by trypan blue. A total of 20 million CD34^+ cells were harvested.

[3] = day 12, culture bag, seeded 10^4/mL

Nc1cccc2c1C(=O)N(C1CCC(=O)NC1=O)C2=O (stereo not shown) [pomalidomide, 4-(Amino)-2-(2,6-dioxo(3-piperidyl))-isoindoline-1,3-dione]
CD34+ expression in the expanded population versus control ([1]; first experiment): significantly higher CD34^+ expression
CD38 expression on cultured cells ([1]; first experiment): appeared to down-regulate CD38 expression
cumulative colony forming units relative to expanded controls ([1]; first experiment): substantial improvement
CD34+ phenotype in the expanded population ([1]; first experiment): 40-60%
CD133 level of expanded CD34+ cells ([1]; first experiment): 15%
expanded CD34+ cells that are CD38 negative ([1]; first experiment): 95%
total nucleated cell expansion ([1]; first experiment): 200-350 fold
CD34+ phenotype in the expanded population ([1]; second similar experiment): 40-60%
CD133 level of expanded CD34+ cells ([1]; second similar experiment): 11.5%
expanded CD34+ cells that are CD38 negative ([1]; second similar experiment): 97%
total nucleated cell expansion ([1]; second similar experiment): 200-350 fold
CD34+ expression in the expanded population versus control ([1]; second similar experiment): significantly higher CD34^+ expression
CD38 expression on cultured cells ([1]; second similar experiment): appeared to down-regulate CD38 expression
cumulative colony forming units relative to expanded controls ([1]; second similar experiment): substantial improvement
ex-vivo expansion of placental derived CD34+ progenitors [2]: significantly enhanced
Viability by trypan blue ([2]; day 12, culture bag): 86% (range: 80-90%)
total CD34+ cells harvested ([2]; day 12, culture bag): 20 million
CD34+ expansion [2, 3]: 200 (range: 100-450) fold
TNC expansion [2, 3]: 350 (range: 250-700) fold
